Laboratory results published in patent US20080254016A1, “Composition For Increasing Anti-Oxidation Activity In Blood” (Kaneka Corporation, priority 2005, published 2008).

Columns and labels:
[1] = healthy person, intake of oxidized coenzyme Q10; cited from earlier work
[2] = Reduced coenzyme Q10 ratio in plasma after oral administration, 54-week-old SD rats (Example 1); type: in vivo
Source text: (§1) The ratio of the reduced form to the total coenzyme Q10 is generally determined by a method comprising quantifying oxidized coenzyme Q10 and reduced coenzyme Q10 in a sample by high performance liquid chromatography (HPLC) using an UV detector and calculating the ratio from the volume ratio obtained, or a method comprising using an HPLC system incorporated with an electrochemical detector for calculating the ratio of oxidized coenzyme Q10 and reduced coenzyme Q10 from the peak area. The HPLC system incorporated with an electrochemical detector makes it possible to specifically determine oxidation-reduction substances and has high sensitivity, and thus is highly useful for determining trace amount of reduced coenzyme Q10 in the living body or samples. In the present invention, all the reduced coenzyme Q10 ratios are determined by the HPLC system incorporated with an electrochemical detector.
(§2) In these Examples, the ratio of reduced coenzyme Q10 to the total coenzyme Q10 was determined using the HPLC system incorporated with an electrochemical detector (product of Shiseido Co., Ltd.) and a reduction column (product of Shiseido Co., Ltd.).
(§3) 10 SD rats (54-week-old, males) were divided into 2 groups each consisted of 5 rats so that each group had the same average body weight value. To one group, a solution of reduced coenzyme Q10 in soybean oil (containing about 1% of oxidized coenzyme Q10) was orally administered, and to the other group, a solution of oxidized coenzyme Q10 in soybean oil was orally administered, each at the dose of 100 mg/kg body weight in coenzyme Q10 equivalent. Then, the reduced coenzyme Q10 ratio in plasma was determined with time lapses. Blood was collected after 1, 2, 4 and 8 hours of oral administration, and centrifuged to obtain plasma. The concentration of reduced coenzyme Q10 and oxidized coenzyme Q10 in the obtained plasma was quantified using HPLC in order to determine the ratio of the reduced form.

[3] = Reduced coenzyme Q10 ratio in plasma after oral administration, 62-week-old SD rats (Example 2); type: in vivo
Source text: as §1, §2
as §3, with “SD rats (62-week-old, males) were” for “SD rats (54-week-old, males) were”, “reduced coenzyme Q10in soybean oil” for “reduced coenzyme Q10 in soybean oil”

[4] = Reduced coenzyme Q10 ratio in plasma after oral administration, 5-week-old SD rats (Reference Example 1); type: in vivo
Source text: as §1, with “The HPLC system incorporated with an electrochemical detector makes it possible to specifically determine oxidation-reduction substances and has high sensitivity, and thus is highly useful for determining trace amount of reduced coenzyme Q10 in the living body or samples.” left out
as §2
10 SD rats (5-week-old, males) were divided into 2 groups each consisted of 5 rats so that each group had the same average body weight value. […] Then, the reduced coenzyme Q10 ratio in plasma was determined with time lapses. […] The concentration of reduced coenzyme Q10 and oxidized coenzyme Q10 in the obtained plasma was quantified using HPLC in order to determine the reduced coenzyme Q10 ratio.

[5] = Reduced coenzyme Q10 ratio in plasma of healthy aged people fed soft capsules (Example 3); type: in vivo, human; settings: healthy aged people 64 to 77 years old, two soft capsules (100 mg of coenzyme Q10), since 2 hours after administration
Source text: as §1, with “The HPLC system incorporated with an electrochemical detector makes it possible to specifically determine oxidation-reduction substances and has high sensitivity, and thus is highly useful for determining trace amount of reduced coenzyme Q10 in the living body or samples.” left out
as §2
Two soft capsules obtained in Preparation Example 5 and Comparative Preparation Example 1 (containing 100 mg of coenzyme Q10) were fed to two groups of healthy aged people (20 male and female individuals in each group, age: 64 to 77 years old), and the effect on the reduced coenzyme Q10 ratio in plasma was evaluated.

[6] = male, SD, rat, in vivo, po, 100 mg/kg, 1 h
[7] = male, SD, rat, in vivo, po, 100 mg/kg, 8 h

Row | Structure (SMILES) | amount of reduced coenzyme Q10 in plasma [1] | ratio of reduced coenzyme Q10 to oxidized coenzyme Q10 in plasma [1] | ratio of the reduced form of coenzyme Q10 in plasma [2, 6] | ratio of the reduced form of coenzyme Q10 in plasma [2, 7] | ratio of the reduced form of coenzyme Q10 in plasma [3, 6] | ratio of the reduced form of coenzyme Q10 in plasma [3, 7] | difference in the reduced coenzyme Q10 ratio in plasma between administration of reduced and oxidized coenzyme Q10 ([4]; rat, in vivo, po, 100 mg/kg) | ratio of the reduced form of coenzyme Q10 in plasma ([2]; 54-week-old male SD rats, 100 mg/kg oral in soybean oil, over 1-8 hours) | ratio of the reduced form of coenzyme Q10 in plasma ([3]; 62-week-old male SD rats, 100 mg/kg oral in soybean oil, over 1-8 hours) | ratio of reduced coenzyme Q10 to the total coenzyme Q10 in plasma, time course [5] | difference in the reduced coenzyme Q10 ratio in plasma between administration of reduced and oxidized coenzyme Q10 ([4]; 5-week-old male SD rats, 100 mg/kg oral in soybean oil, after 2 hours or later of administration)
1 | COC1=C(OC)C(=O)C(C/C=C(\C)CCC=C(C)CCC=C(C)CCC=C(C)CCC=C(C)CCC=C(C)CCC=C(C)CCC=C(C)CCC=C(C)CCC=C(C)C)=C(C)C1=O [oxidized coenzyme Q10] | increased | unchanged | about 76% | about 87% | about 74% | about 78% | almost no difference |  |  |  | 
2 | COc1c(O)c(C)c(C/C=C(\C)CC/C=C(\C)CC/C=C(\C)CC/C=C(\C)CC/C=C(\C)CC/C=C(\C)CC/C=C(\C)CC/C=C(\C)CC/C=C(\C)CCC=C(C)C)c(O)c1OC [reduced coenzyme Q10] |  |  |  |  |  |  |  | around 90% | around 90% | increased with the lapse of time | almost no difference
